Experimental data published in US20170362498A1, “USE OF MGDA AS ADDITIVE IN PROCESSES FOR RECOVERING CRUDE OIL AND/OR GAS FROM SUBTERRANEAN FORMATIONS” (BASF SE, priority 2014, published 2017).

What was measured:
[1] = Determination of stability against strong alkali (solid NaOH), visual inspection; conditions: for Appearance of test solutions after 96 h of storage: 25 g of 40% by weight aqueous solution, ambient temperature; for Solubility / appearance with increasing NaOH amounts (summary): 40% by weight aqueous solution, 0 to 2.5 g solid NaOH added, up to 96 hours
[2] = Determination of solubility in water (Tsol); assay type: physicochemical; conditions: minimum temperature for forming a kinetically stable (clear) 50% by weight solution in water; cooled 30° C./h to precipitation, reheated 1° C./h
Description: In each case, the solubility was calculated to refer to pure MGDA, without hydrate water.
The solubility of inventive mixtures and of comparison experiments was determined with an apparatus that allowed heating and cooling down liquid solutions. […] Then, the slurry of crystals of MGDA so obtained was again heated at a speed of 1° C./h until a clear solution was obtained. The slurry/solution was checked for solid particles by visible light scattering detection.
The above tests furnished the minimum temperature, Tsol, for forming a kinetically stable 50% by weight solution of the respective mixture of isomers. A higher temperature Tsol correlates with a lower solubility at ambient temperature.

Row | SMILES | Appearance of test solutions after 96 h of storage ([1]; NaOH added 1.5 g (6 wt. % vs. 40% solution), * = after 48 hours, listed as MGDA: 50% ee) | Appearance of test solutions after 96 h of storage ([1]; NaOH added 2.0 g (8 wt. % vs. 40% solution), * = after 48 hours, listed as MGDA: 50% ee) | Appearance of test solutions after 96 h of storage ([1]; NaOH added 2.5 g (10 wt. % vs. 40% solution), ** = immediately after addition of NaOH, listed as MGDA: 50% ee) | Solubility / appearance with increasing NaOH amounts (summary) ([1]; listed as mixture according to the present invention (50% ee)) | Appearance of test solutions after 96 h of storage ([1]; NaOH added 0 g (0 wt. % vs. 40% solution)) | Appearance of test solutions after 96 h of storage ([1]; NaOH added 0.5 g (2 wt. % vs. 40% solution)) | Appearance of test solutions after 96 h of storage ([1]; NaOH added 1.0 g (4 wt. % vs. 40% solution)) | Appearance of test solutions after 96 h of storage ([1]; NaOH added 1.5 g (6 wt. % vs. 40% solution), * = after 48 hours, listed as Racemic MGDA) | Appearance of test solutions after 96 h of storage ([1]; NaOH added 2.0 g (8 wt. % vs. 40% solution), * = after 48 hours, listed as Racemic MGDA) | Appearance of test solutions after 96 h of storage ([1]; NaOH added 2.5 g (10 wt. % vs. 40% solution), ** = immediately after addition of NaOH, listed as Racemic MGDA) | Solubility / appearance with increasing NaOH amounts (summary) ([1]; listed as racemic MGDA) | Tsol [2]
1 | CC(C(=O)O)N(CC(=O)O)CC(=O)O (stereo not drawn) [ee value 50.0, methyl glycine diacetic acid] | clear liquid | clear liquid | clear liquid | remains clear |  |  |  |  |  |  |  | 
2 | CC(C(=O)O)N(CC(=O)O)CC(=O)O (stereo not drawn) [ee value zero, methyl glycine diacetic acid] |  |  |  |  | clear liquid | clear liquid | clear liquid | turbid* liquid | turbid* liquid | turbid, precipitate** | decreases with increasing NaOH amounts | 103.8 °C
